In patent US20090311237A1, “Combination therapy using a soluble hyaluronidase and a bisphosphonate” (priority 2008, published 2009):
Where two headings read alike, the source gives them in different places.

Experiment: Pharmacokinetics of ZA in pig serum after IV or SC infusion with or without rHuPH20 (LC-MS-MS, non-compartmental analysis)
Type: in vivo
Conditions: female, Yorkshire, pig, serum, […], pig; for bioavailability / Tmax / half-life / Vd/F: sc, SC ZA […], no rHuPH20 (Study Group 2), n=4; for concentration at 0.05 h / concentration at 5 min / concentration at 0.333 h / concentration at 0.5 h / concentration at 1 h: subcutaneous, Study Group 2, SC, ZA […], rHuPH20 0 U/mL, read-out: Zoledronic Acid Serum Concentration
Procedure: A pharmacokinetic study of zoledronic acid (ZA) co-administered with rHuPH20 in female Yorkshire swines was conducted. The primary objective of the study was to determine the bioavailability of zoledronic acid dosed via subcutaneous (SC) co-administration with human recombinant hyaluronidase PH20 (rHuPH20) and to compare the overall exposure to an equivalent IV dose.
Animals in Study Group 1 were dosed with 0.15 mg/kg ZA given via a 20-minute IV infusion. Animals in Study Groups 2 and 3 were dosed subcutaneously (SC) with 0.15 mg/kg ZA without and with rHuPH20, respectively, in different SC delivery volumes.
Following ZA dose administration, serial blood samples were collected via vascular access ports (VAPs) for serum preparation and determination of ZA concentrations. Blood collection times were at 1, 3, 5, 10, 15, 20, 30, 45, and 60 minutes, and at 1.5, 2, 3, 4, 6, 8, 10, 24, 48, and 72 hours post dose. Urine samples were also collected to compare excretion characteristics between IV and SC routes of administration. Collection times for urine were at 15 minutes before dosing (−15 min.), continuously from dose initiation to 2 hours post dose, and at 4, 6, 8, and 24 hours post dose thereafter.
Serum concentration of ZA was determined using a qualified LC-MS-MS assay after derivatization with diazomethane (Zhu, L S et al. (2006) Rapid Commun. Mass Spectrom. 20: 3421-3426; “Qualification Data of An LC-MS/MS Method for the Determination of Zoledronate in Porcine Serum”, MDS Pharma Services Study No. AA43671-01, Report Date 14 Sep. 2007). The assay range was from 2.0 to 400 ng/mL with a lower limit of quantitation (LLOQ) at 2.0 ng/mL. Urine concentration of ZA was determined by a similar well qualified LC-MS-MS method (“Qualification Data of An LC-MS/MS Method for the Determination of Zoledronate in Porcine Urine”, MDS Pharma Services Study No. AA43671-02, Report Date 14 Sep. 2007) with an assay LLOQ at 10 ng/mL.
Pharmacokinetic (PK) analyses of ZA serum concentration versus time data were conducted using WinNonlin v5.1 (Pharsight, Mountain View, Calif.). Non-compartmental analysis was used for derivation of primary and secondary pharmacokinetic (PK) parameters. AUC, Cmax, and Tmax were compared between dose routes, between co-administration with rHuPH20, and with dose of rHuPH20.

O=P(O)(O)C(O)(Cn1ccnc1)P(=O)(O)O [ZA, 1-hydroxy-2-(1H-imidazol-1-yl)ethylidene-1,1-bisphosphonic acid]
bioavailability (read-out: SC Bioavailability (0-8 h), mean): 87.7 ± 15%
bioavailability (read-out: SC Bioavailability (0-8 h), median): 86.9%
Tmax (read-out: Tmax, mean): 12.6 min
Tmax (read-out: Tmax, median): 10.2 min
half-life (read-out: T½ λz, mean (converted)): 64.2 ± 14.4 min
half-life (read-out: T½ λz, median (converted)): 59.4 min
Vd/F (read-out: Vss/F, mean): 0.607 L/kg
Vd/F (read-out: Vss/F, median): 0.625 L/kg
Vd/F (read-out: Vz/F, mean): 0.784 L/kg
Vd/F (read-out: Vz/F, median): 0.832 L/kg
concentration at 0.05 h (pig ID 59, 100 mL, 16 min): 13.9 ng/mL
concentration at 0.05 h (pig ID 60, 100 mL, 16 min): 51.5 ng/mL
concentration at 0.05 h (pig ID 62, 50 mL, 8 min): 97.6 ng/mL
concentration at 0.05 h (pig ID 69, 25 mL, 4 min): 144 ng/mL
concentration at 0.05 h (pig ID 70, 10 mL, 1.6 min): 174 ng/mL
concentration at 5 min (pig ID 59, 100 mL, 16 min): 32.4 ng/mL
concentration at 5 min (pig ID 60, 100 mL, 16 min): 85 ng/mL
concentration at 0.333 h (pig ID 59, 100 mL, 16 min): 130 ng/mL
concentration at 0.333 h (pig ID 60, 100 mL, 16 min): 255 ng/mL
concentration at 0.333 h (pig ID 62, 50 mL, 8 min): 208 ng/mL
concentration at 0.333 h (pig ID 69, 25 mL, 4 min): 210 ng/mL
concentration at 0.333 h (pig ID 70, 10 mL, 1.6 min): 233 ng/mL
concentration at 0.5 h (pig ID 59, 100 mL, 16 min): 120 ng/mL
concentration at 0.5 h (pig ID 60, 100 mL, 16 min): 211 ng/mL
concentration at 0.5 h (pig ID 62, 50 mL, 8 min): 149 ng/mL
concentration at 0.5 h (pig ID 69, 25 mL, 4 min): 115 ng/mL
concentration at 0.5 h (pig ID 70, 10 mL, 1.6 min): 191 ng/mL
concentration at 1 h (pig ID 59, 100 mL, 16 min): 44.6 ng/mL
concentration at 1 h (pig ID 60, 100 mL, 16 min): 149 ng/mL
concentration at 1 h (pig ID 62, 50 mL, 8 min): 81.6 ng/mL
concentration at 1 h (pig ID 69, 25 mL, 4 min): 74.6 ng/mL
